Measurements from patent publication US20120177779A1, “FISH FEEDING STIMULANT AND PRODUCT” (priority 2008, published 2012).
One block for each molecule: values may come before it.

Assays:
[1] = test system: carp; conditions: in vivo
Source text: (§1) The data in FIG. 8 leads to several conclusions. […] Importantly, members of both the ‘A’ and ‘SP’ AA groups are NOT considered to be physiologically significant. […] Thus, as a direct consequence, it is strongly inferred that only AAs belonging to the ‘B’ and ‘LN’ groups are physiologically significant with regard to the fishes' ability to detect forage via the recognition of solvated AAs.

[2] = physiological pH; cited from earlier work
[3] = test system: carp; assay: Stimulatory response (average feeding time/fish) to VAL/LYS solutions, FIG. 8; type: in vivo
Source text: FIG. 8 is a graph showing stimulatory response as a function of composition for mixtures of L-Valine (V) and L-Lysine (K).
The relationship between stimulatory response (as determined through average feeding time/fish) and AA ratio for a variety of net equimolar mixtures comprised of VAL (V) and LYS (K), as well as reference solutions containing the respective individual AAs is shown in FIG. 8.
as §1

physiological distress on exposure [1]: signs of physiological distress
Compound: N[C@@H](CO)C(=O)O [SER, serine]

physiological distress on exposure [1]: signs of physiological distress
Compound: NC(=O)CC[C@H](N)C(=O)O [GLU, glutamine]

Compound: N[C@@H](Cc1c[nH]cn1)C(=O)O [L-Histidine]
fraction protonated [2]: approximately 10%

Compound: NCCCC[C@H](N)C(=O)O [LYS, L-Lysine]
stimulatory response (average feeding time/fish) ([3]; net equimolar VAL/LYS mixtures and 0.5% single AA reference solutions): significantly enhanced stimulatory response

Compound: CC(C)[C@H](N)C(=O)O [VAL, L-Valine]
stimulatory response relative to that observed for a similar strength LYS solution ([3]; similar concentration (0.5%) solution): approximately 50%
